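1) Cells in 96-well plates. 2) Compound, 48 h, 5 concentrations. 3) Linear interpolation between surrounding doses. 4) Unreached endpoint = highest concentration. TGI is the concentration that stops growth completely.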
Legend:
Assay in all cases: inhibition of tumour cell growth, NCI panel, 48 h
786-0 renal = test system: 786-0 renal
A498 renal = test system: A498 renal
A549 NSCLC = test system: A549 NSCLC
ACHN renal = test system: ACHN renal
CCRF-CEM leukemia = test system: CCRF-CEM leukemia
COLO 205 colon = test system: COLO 205 colon
DU-145 prostate = test system: DU-145 prostate
EKVX NSCLC = test system: EKVX NSCLC
HCT-116 colon = test system: HCT-116 colon
HCT-15 colon = test system: HCT-15 colon
HOP-62 NSCLC = test system: HOP-62 NSCLC
HOP-92 NSCLC = test system: HOP-92 NSCLC
HS 578T breast = test system: HS 578T breast
HT29 colon = test system: HT29 colon
IGROV1 ovarian = test system: IGROV1 ovarian
K-562 leukemia = test system: K-562 leukemia
KM12 colon = test system: KM12 colon
LOX IMVI melanoma = test system: LOX IMVI melanoma
M14 melanoma = test system: M14 melanoma
MALME-3M melanoma = test system: MALME-3M melanoma
MCF7 breast = test system: MCF7 breast
MDA-MB-231 breast = test system: MDA-MB-231 breast
MDA-MB-435 = test system: MDA-MB-435
MDA-N = test system: MDA-N
MOLT-4 leukemia = test system: MOLT-4 leukemia
NCI-H226 lung = test system: NCI-H226 lung
NCI-H23 lung = test system: NCI-H23 lung
NCI-H522 lung = test system: NCI-H522 lung
NCI/ADR-RES ovarian = test system: NCI/ADR-RES ovarian
OVCAR-3 ovarian = test system: OVCAR-3 ovarian
OVCAR-4 ovarian = test system: OVCAR-4 ovarian
OVCAR-5 ovarian = test system: OVCAR-5 ovarian
OVCAR-8 ovarian = test system: OVCAR-8 ovarian
PC-3 prostate = test system: PC-3 prostate
RPMI-8226 leukemia = test system: RPMI-8226 leukemia
SF-268 CNS = test system: SF-268 CNS
SF-295 CNS = test system: SF-295 CNS
SK-MEL-2 melanoma = test system: SK-MEL-2 melanoma
SK-MEL-28 melanoma = test system: SK-MEL-28 melanoma
SK-MEL-5 melanoma = test system: SK-MEL-5 melanoma
SK-OV-3 ovarian = test system: SK-OV-3 ovarian
SN12C renal = test system: SN12C renal
SNB-19 CNS = test system: SNB-19 CNS
SNB-75 CNS = test system: SNB-75 CNS
SR leukemia = test system: SR leukemia
SW-620 colon = test system: SW-620 colon
TK-10 renal = test system: TK-10 renal
U251 CNS = test system: U251 CNS
UACC-62 melanoma = test system: UACC-62 melanoma
UO-31 renal = test system: UO-31 renal
BT-549 breast = test system: BT-549 breast
CAKI-1 renal = test system: CAKI-1 renal
HCC-2998 colon = test system: HCC-2998 colon
HL-60(TB) leukemia = test system: HL-60(TB) leukemia
NCI-H460 lung = test system: NCI-H460 lung
UACC-257 melanoma = test system: UACC-257 melanoma
RXF 393 renal = test system: RXF 393 renal
SF-539 CNS = test system: SF-539 CNS
T-47D breast = test system: T-47D breast

COc1ccc(/C=C2\NC(=S)N(CN3CCCCC3)C2=O)cc1
TGI (786-0 renal): > 100 µM | TGI (A498 renal): > 100 µM | TGI (A549 NSCLC): > 100 µM | TGI (ACHN renal): > 100 µM | TGI (CCRF-CEM leukemia): > 100 µM | TGI (COLO 205 colon): 85.6 µM | TGI (DU-145 prostate): > 100 µM | TGI (EKVX NSCLC): > 100 µM | TGI (HCT-116 colon): > 100 µM | TGI (HCT-15 colon): > 100 µM | TGI (HOP-62 NSCLC): > 100 µM | TGI (HOP-92 NSCLC): > 100 µM | TGI (HS 578T breast): 42 µM | TGI (HT29 colon): 41 µM | TGI (IGROV1 ovarian): > 100 µM | TGI (K-562 leukemia): > 100 µM | TGI (KM12 colon): > 100 µM | TGI (LOX IMVI melanoma): 93.3 µM | TGI (M14 melanoma): > 100 µM | TGI (MALME-3M melanoma): > 100 µM | TGI (MCF7 breast): 61.1 µM | TGI (MDA-MB-231 breast): > 100 µM | TGI (MDA-MB-435): > 100 µM | TGI (MDA-N): > 100 µM | TGI (MOLT-4 leukemia): > 100 µM | TGI (NCI-H226 lung): > 100 µM | TGI (NCI-H23 lung): > 100 µM | TGI (NCI-H522 lung): > 100 µM | TGI (NCI/ADR-RES ovarian): > 100 µM | TGI (OVCAR-3 ovarian): > 100 µM | TGI (OVCAR-4 ovarian): 78.8 µM | TGI (OVCAR-5 ovarian): > 100 µM | TGI (OVCAR-8 ovarian): 50 µM | TGI (PC-3 prostate): > 100 µM | TGI (RPMI-8226 leukemia): > 100 µM | TGI (SF-268 CNS): 50.4 µM | TGI (SF-295 CNS): > 100 µM | TGI (SK-MEL-2 melanoma): > 100 µM | TGI (SK-MEL-28 melanoma): > 100 µM | TGI (SK-MEL-5 melanoma): > 100 µM | TGI (SK-OV-3 ovarian): > 100 µM | TGI (SN12C renal): > 100 µM | TGI (SNB-19 CNS): > 100 µM | TGI (SNB-75 CNS): 79 µM | TGI (SR leukemia): > 100 µM | TGI (SW-620 colon): > 100 µM | TGI (TK-10 renal): > 100 µM | TGI (U251 CNS): > 100 µM | TGI (UACC-62 melanoma): > 100 µM | TGI (UO-31 renal): > 100 µM

O=C(c1cccc2ccccc12)C1(Br)S(=O)(=O)OCCOS1(=O)=O
TGI (786-0 renal): > 100 µM | TGI (A549 NSCLC): > 100 µM | TGI (ACHN renal): > 100 µM | TGI (BT-549 breast): > 100 µM | TGI (CAKI-1 renal): > 100 µM | TGI (COLO 205 colon): > 100 µM | TGI (DU-145 prostate): > 100 µM | TGI (EKVX NSCLC): > 100 µM | TGI (HCC-2998 colon): > 100 µM | TGI (HCT-116 colon): > 100 µM | TGI (HCT-15 colon): > 100 µM | TGI (HL-60(TB) leukemia): > 100 µM | TGI (HOP-62 NSCLC): > 100 µM | TGI (HT29 colon): > 100 µM | TGI (KM12 colon): > 100 µM | TGI (LOX IMVI melanoma): > 100 µM | TGI (M14 melanoma): > 100 µM | TGI (MALME-3M melanoma): > 100 µM | TGI (MCF7 breast): > 100 µM | TGI (MDA-MB-231 breast): > 100 µM | TGI (MDA-MB-435): > 100 µM | TGI (MDA-N): > 100 µM | TGI (MOLT-4 leukemia): > 100 µM | TGI (NCI-H23 lung): > 100 µM | TGI (NCI-H460 lung): > 100 µM | TGI (NCI/ADR-RES ovarian): > 100 µM | TGI (OVCAR-3 ovarian): > 100 µM | TGI (OVCAR-4 ovarian): > 100 µM | TGI (OVCAR-5 ovarian): > 100 µM | TGI (OVCAR-8 ovarian): > 100 µM | TGI (RPMI-8226 leukemia): > 100 µM | TGI (SF-295 CNS): > 100 µM | TGI (SK-MEL-2 melanoma): > 100 µM | TGI (SK-MEL-28 melanoma): > 100 µM | TGI (SK-MEL-5 melanoma): > 100 µM | TGI (SN12C renal): > 100 µM | TGI (SNB-19 CNS): > 100 µM | TGI (SR leukemia): > 100 µM | TGI (TK-10 renal): > 100 µM | TGI (U251 CNS): > 100 µM | TGI (UACC-257 melanoma): > 100 µM | TGI (UO-31 renal): > 100 µM

CCOC(=O)C(=[N+]=[N-])C(=O)C1(C(=O)OCC)CCN(C(=O)c2ccccc2)C1=O (configuration not stated)
TGI (786-0 renal): > 100 µM | TGI (A498 renal): > 100 µM | TGI (A549 NSCLC): > 100 µM | TGI (ACHN renal): > 100 µM | TGI (CAKI-1 renal): > 100 µM | TGI (CCRF-CEM leukemia): > 100 µM | TGI (COLO 205 colon): > 100 µM | TGI (DU-145 prostate): > 100 µM | TGI (EKVX NSCLC): > 100 µM | TGI (HCT-116 colon): > 100 µM | TGI (HCT-15 colon): > 100 µM | TGI (HL-60(TB) leukemia): > 100 µM | TGI (HOP-62 NSCLC): > 100 µM | TGI (HOP-92 NSCLC): > 100 µM | TGI (HS 578T breast): > 100 µM | TGI (HT29 colon): > 100 µM | TGI (IGROV1 ovarian): > 100 µM | TGI (KM12 colon): > 100 µM | TGI (LOX IMVI melanoma): > 100 µM | TGI (M14 melanoma): > 100 µM | TGI (MALME-3M melanoma): > 100 µM | TGI (MCF7 breast): > 100 µM | TGI (MDA-MB-231 breast): > 100 µM | TGI (MDA-N): > 100 µM | TGI (MOLT-4 leukemia): > 100 µM | TGI (NCI-H226 lung): > 100 µM | TGI (NCI-H23 lung): > 100 µM | TGI (NCI-H460 lung): > 100 µM | TGI (NCI-H522 lung): > 100 µM | TGI (NCI/ADR-RES ovarian): > 100 µM | TGI (OVCAR-4 ovarian): > 100 µM | TGI (OVCAR-5 ovarian): > 100 µM | TGI (OVCAR-8 ovarian): > 100 µM | TGI (PC-3 prostate): > 100 µM | TGI (RXF 393 renal): > 100 µM | TGI (SF-268 CNS): > 100 µM | TGI (SF-295 CNS): > 100 µM | TGI (SF-539 CNS): > 100 µM | TGI (SK-MEL-2 melanoma): > 100 µM | TGI (SK-MEL-5 melanoma): > 100 µM | TGI (SK-OV-3 ovarian): > 100 µM | TGI (SN12C renal): > 100 µM | TGI (SNB-19 CNS): > 100 µM | TGI (SNB-75 CNS): > 100 µM | TGI (T-47D breast): > 100 µM | TGI (TK-10 renal): > 100 µM | TGI (UACC-257 melanoma): > 100 µM | TGI (UACC-62 melanoma): > 100 µM | TGI (UO-31 renal): > 100 µM

NC1CC(=O)c2sc(I)cc21 (configuration not stated)
TGI (786-0 renal): > 100 µM | TGI (A498 renal): > 100 µM | TGI (A549 NSCLC): > 100 µM | TGI (ACHN renal): > 100 µM | TGI (BT-549 breast): > 100 µM | TGI (CAKI-1 renal): > 100 µM | TGI (CCRF-CEM leukemia): > 100 µM | TGI (COLO 205 colon): > 100 µM | TGI (DU-145 prostate): > 100 µM | TGI (EKVX NSCLC): > 100 µM | TGI (HCC-2998 colon): > 100 µM | TGI (HCT-116 colon): > 100 µM | TGI (HCT-15 colon): > 100 µM | TGI (HL-60(TB) leukemia): 78.7 µM | TGI (HOP-62 NSCLC): > 100 µM | TGI (HT29 colon): > 100 µM | TGI (IGROV1 ovarian): > 100 µM | TGI (K-562 leukemia): > 100 µM | TGI (KM12 colon): > 100 µM | TGI (M14 melanoma): > 100 µM | TGI (MALME-3M melanoma): > 100 µM | TGI (MCF7 breast): > 100 µM | TGI (MDA-MB-231 breast): > 100 µM | TGI (MDA-MB-435): > 100 µM | TGI (MDA-N): > 100 µM | TGI (MOLT-4 leukemia): > 100 µM | TGI (NCI-H460 lung): > 100 µM | TGI (NCI/ADR-RES ovarian): > 100 µM | TGI (OVCAR-3 ovarian): > 100 µM | TGI (OVCAR-5 ovarian): > 100 µM | TGI (OVCAR-8 ovarian): > 100 µM | TGI (PC-3 prostate): > 100 µM | TGI (RPMI-8226 leukemia): > 100 µM | TGI (RXF 393 renal): > 100 µM | TGI (SF-268 CNS): > 100 µM | TGI (SF-539 CNS): > 100 µM | TGI (SK-MEL-2 melanoma): > 100 µM | TGI (SK-MEL-28 melanoma): > 100 µM | TGI (SK-MEL-5 melanoma): > 100 µM | TGI (SK-OV-3 ovarian): > 100 µM | TGI (SN12C renal): > 100 µM | TGI (SNB-19 CNS): > 100 µM | TGI (SNB-75 CNS): > 100 µM | TGI (SR leukemia): > 100 µM | TGI (SW-620 colon): > 100 µM | TGI (T-47D breast): > 100 µM | TGI (TK-10 renal): > 100 µM | TGI (U251 CNS): > 100 µM | TGI (UACC-257 melanoma): > 100 µM | TGI (UACC-62 melanoma): > 100 µM | TGI (UO-31 renal): > 100 µM
